Assay results published in patent US8741899B2, “(4-chloro-2-fluoro-N-(2-fluorophenyl)-5-[(8aR)-hexahydropyrrolo-[1,2-a]pyrazin-2(1H)-ylcarbonyl]-benzenesulfonamide, and pharmaceutically acceptable salts thereof” (AbbVie Inc., priority 2009, dated 2014).

Target: T1, Human Cav3.2 Channels (Homo sapiens, UniProt O95180)
T1 construct: expressed in transfected cells
Assay: Electrophysiologic (whole-cell patch-clamp) assessment of calcium channel activity in HEK293 cells stably expressing hCav3.2
Type: cell-based
Conditions: −77 mV, geometric mean, read-out: Human Cav3.2 −77 mV IC50 (μM) GeoMean
Procedure: (i) In Vitro Methods—Electrophysiologic Assessment of Calcium Channel Activity:
Patch-clamp recordings were performed using HEK293 cells stably expressing hCav3.2. Cells were plated in T175 flasks and grown at 37° C. and under 5% CO2 to approximately 50% confluency. On the day of the experiment, cells were harvested with Detachin™ cell detachment solution (Genlantis, San Diego, Calif.) and maintained in serum-free culture medium supplemented with 25 mM HEPES up to several hours prior to experiment. Whole-cell patch-clamp recordings were obtained using extracellular saline consisting of (mM): 87.5 CsCl, 40 TEA-Cl, 5 CaCl2, 1 MgCl2, 10 HEPES, 10 glucose. The pH was adjusted to 7.2 with CsOH and the osmolarity was adjusted to approximately 310 mOsm with sucrose. Intracellular solution consisted of (mM): 112 CsCl, 27 CsF, 2 NaCl, 8.2 EGTA, 10 HEPES. Prior to an experiment 4 mM Mg2ATP was added and the pH was adjusted to 7.2 with CsOH with an osmolarity of approximately 290 mOsm. A two-pulse voltage protocol was utilized to assess compound inhibition. First, cells were held with an 8 s pre-pulse at −100 mV prior to a 160 ms test pulse to −30 mV. This was followed by an 8 s pre-pulse at approximately −75 mV prior to a […]. Increasing concentrations of antagonist were applied to individual cells in a multi-addition format with 5 minutes in each test concentration. For each cell, responses were normalized to dimethyl sulfoxide vehicle control to generate concentration-response curves.

T1 sequence (O95180 whole entry): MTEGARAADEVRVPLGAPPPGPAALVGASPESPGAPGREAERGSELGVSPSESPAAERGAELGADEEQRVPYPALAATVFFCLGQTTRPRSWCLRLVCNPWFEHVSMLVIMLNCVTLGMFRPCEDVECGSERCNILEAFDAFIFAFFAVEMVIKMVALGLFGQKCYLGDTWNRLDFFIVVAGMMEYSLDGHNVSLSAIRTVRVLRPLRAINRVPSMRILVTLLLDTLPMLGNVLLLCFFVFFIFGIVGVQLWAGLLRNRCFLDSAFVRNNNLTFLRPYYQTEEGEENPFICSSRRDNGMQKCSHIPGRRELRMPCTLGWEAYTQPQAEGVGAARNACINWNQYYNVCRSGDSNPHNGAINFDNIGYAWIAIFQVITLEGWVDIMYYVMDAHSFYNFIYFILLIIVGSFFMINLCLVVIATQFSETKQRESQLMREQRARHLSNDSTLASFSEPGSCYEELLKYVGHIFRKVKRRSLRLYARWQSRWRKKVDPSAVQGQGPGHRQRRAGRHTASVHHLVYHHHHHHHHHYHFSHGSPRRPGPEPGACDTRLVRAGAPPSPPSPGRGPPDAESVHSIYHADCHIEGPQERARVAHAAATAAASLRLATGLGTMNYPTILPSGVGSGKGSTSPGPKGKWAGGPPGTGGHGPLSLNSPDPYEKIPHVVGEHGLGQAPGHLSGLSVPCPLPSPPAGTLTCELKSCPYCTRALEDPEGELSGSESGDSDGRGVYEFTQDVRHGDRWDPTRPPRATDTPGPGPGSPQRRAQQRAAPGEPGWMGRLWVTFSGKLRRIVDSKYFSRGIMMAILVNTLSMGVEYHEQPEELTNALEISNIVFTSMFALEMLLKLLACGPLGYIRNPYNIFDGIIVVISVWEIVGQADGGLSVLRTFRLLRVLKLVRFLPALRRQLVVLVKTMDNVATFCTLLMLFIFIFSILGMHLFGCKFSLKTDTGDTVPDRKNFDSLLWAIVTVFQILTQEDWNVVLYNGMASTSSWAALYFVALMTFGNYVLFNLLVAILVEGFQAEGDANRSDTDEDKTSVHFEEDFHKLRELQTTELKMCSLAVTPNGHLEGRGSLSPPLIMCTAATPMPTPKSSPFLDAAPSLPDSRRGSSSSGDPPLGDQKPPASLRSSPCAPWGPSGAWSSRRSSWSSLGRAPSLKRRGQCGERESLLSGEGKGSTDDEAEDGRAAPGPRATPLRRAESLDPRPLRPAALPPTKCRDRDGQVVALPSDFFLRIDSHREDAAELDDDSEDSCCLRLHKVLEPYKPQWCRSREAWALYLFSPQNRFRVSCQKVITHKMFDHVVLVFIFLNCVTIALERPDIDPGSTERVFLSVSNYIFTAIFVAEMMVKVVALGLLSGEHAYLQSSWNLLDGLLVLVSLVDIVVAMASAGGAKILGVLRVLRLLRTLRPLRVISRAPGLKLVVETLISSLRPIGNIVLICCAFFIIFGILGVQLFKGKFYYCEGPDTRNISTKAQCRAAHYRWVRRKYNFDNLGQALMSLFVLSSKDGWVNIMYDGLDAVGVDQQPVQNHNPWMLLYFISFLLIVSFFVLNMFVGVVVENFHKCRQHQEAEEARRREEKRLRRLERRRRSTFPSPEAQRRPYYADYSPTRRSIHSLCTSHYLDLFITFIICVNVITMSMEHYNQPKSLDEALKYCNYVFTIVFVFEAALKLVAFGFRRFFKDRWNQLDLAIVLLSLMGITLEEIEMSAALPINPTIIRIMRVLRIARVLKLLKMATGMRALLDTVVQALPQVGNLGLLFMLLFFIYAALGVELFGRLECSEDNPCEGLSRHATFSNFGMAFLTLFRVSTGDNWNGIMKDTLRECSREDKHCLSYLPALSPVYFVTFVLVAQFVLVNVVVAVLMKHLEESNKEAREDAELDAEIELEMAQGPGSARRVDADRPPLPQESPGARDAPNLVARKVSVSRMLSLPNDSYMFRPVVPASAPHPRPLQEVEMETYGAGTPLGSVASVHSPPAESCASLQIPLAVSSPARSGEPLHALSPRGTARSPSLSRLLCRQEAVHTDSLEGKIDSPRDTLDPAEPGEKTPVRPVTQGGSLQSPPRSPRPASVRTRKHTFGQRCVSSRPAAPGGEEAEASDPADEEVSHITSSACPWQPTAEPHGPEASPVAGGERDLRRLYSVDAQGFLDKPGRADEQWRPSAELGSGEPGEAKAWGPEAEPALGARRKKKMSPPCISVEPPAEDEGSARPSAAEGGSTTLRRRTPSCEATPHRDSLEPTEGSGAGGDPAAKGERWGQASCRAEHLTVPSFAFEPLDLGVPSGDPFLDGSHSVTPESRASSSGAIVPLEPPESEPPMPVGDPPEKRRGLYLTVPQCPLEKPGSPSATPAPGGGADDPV

**Q.** `O=C(c1cc(S(=O)(=O)N2CCc3ccccc32)c(F)cc1Cl)N1CCN2CCC[C@@H]2C1` [Example 63, (8aR)-2-[2-chloro-5-(2,3-dihydro-1H-indol-1-ylsulfonyl)-4-fluorobenzoyl]octahydropyrrolo[1,2-a]pyrazine] was tested. Which IC50 did it give?
**A.** > 10 µM

**Q.** `O=C(Nc1cc(C(=O)N2CCN3CCC[C@@H]3C2)ccc1Cl)C(c1ccccc1)c1ccccc1` [Example 78, N-{2-chloro-5-[(8aR)-hexahydropyrrolo[1,2-a]pyrazin-2(1H)-ylcarbonyl]phenyl}-2,2-diphenylacetamide] was tested. Which IC50 did it give?
**A.** > 10 µM

**Q.** With `O=C(c1cccc(S(=O)(=O)N2CCN(C(c3ccc(F)cc3)c3ccc(F)cc3)CC2)c1)N1CCN2CCC[C@H]2C1` [Example 23, (8aS)-2-[3-({4-[bis(4-fluorophenyl)methyl]piperazin-1-yl}sulfonyl)benzoyl]octahydropyrrolo[1,2-a]pyrazine] as the molecule, how does the IC50 read?
**A.** 2.5 µM

**Q.** For `O=C(c1cccc(S(=O)(=O)Nc2ccc(C(F)(F)F)cc2)c1)N1CCN2CCC[C@@H]2C1` [Example 1, 3-[(8aR)-hexahydropyrrolo[1,2-a]pyrazin-2(1H)-ylcarbonyl]-N-[4-(trifluoromethyl)phenyl]benzenesulfonamide], which IC50 is on record?
**A.** > 10 µM

**Q.** `O=C(c1cc(S(=O)(=O)Nc2ccc(C(F)(F)F)cc2)ccc1Cl)N1CCN2CCC[C@@H]2C1` [Example 32, 4-chloro-3-[(8aR)-hexahydropyrrolo[1,2-a]pyrazin-2(1H)-ylcarbonyl]-N-[4-(trifluoromethyl)phenyl]benzenesulfonamide] was tested. Which IC50 did it give?
**A.** 8.4 µM

**Q.** Which IC50 does the source give for `O=C(c1cccc(S(=O)(=O)Nc2c(F)cccc2F)c1)N1CCN2CCC[C@H]2C1` [Example 4, N-(2,6-difluorophenyl)-3-[(8aS)-hexahydropyrrolo[1,2-a]pyrazin-2(1H)-ylcarbonyl]benzenesulfonamide] here?
**A.** 7.7 µM

**Q.** Which IC50 does the source give for `O=C(c1cccc(S(=O)(=O)Nc2ccc(F)cc2)c1)N1CCC(N2CCCC2)CC1` [Example 40, N-(4-fluorophenyl)-3-[(4-pyrrolidin-1-ylpiperidin-1-yl)carbonyl]benzenesulfonamide] here?
**A.** 4.1 µM

**Q.** With `O=C(c1cccc(S(=O)(=O)N[C@@H]2C[C@H]2c2ccccc2)c1)N1CCN2CCC[C@H]2C1` [Example 61, 3-[(8aS)-hexahydropyrrolo[1,2-a]pyrazin-2(1H)-ylcarbonyl]-N-[(1R,2S)-2-phenylcyclopropyl]benzenesulfonamide] as the molecule, how does the IC50 read?
**A.** > 10 µM

**Q.** How did the IC50 turn out when `O=C(c1cccc(S(=O)(=O)Nc2cccc(F)c2)c1)N1CCN2CCC[C@@H]2C1` [Example 7, N-(3-fluorophenyl)-3-[(8aR)-hexahydropyrrolo[1,2-a]pyrazin-2(1H)-ylcarbonyl]benzenesulfonamide] was run?
**A.** 6.5 µM

**Q.** For `O=C(c1cc(S(=O)(=O)NC(c2ccccc2)c2ccccc2)c(F)cc1Cl)N1CCN2CCC[C@@H]2C1` [Example 74, N-benzhydryl-4-chloro-2-fluoro-5-[(8aR)-hexahydropyrrolo[1,2-a]pyrazin-2(1H)-ylcarbonyl]benzenesulfonamide], which IC50 is on record?
**A.** 2 µM

**Q.** For `O=C(c1cccc(S(=O)(=O)Nc2ccccc2F)c1)N1CCC(N2CCCCC2)CC1` [Example 47, 3-(1,4′-bipiperidin-1′-ylcarbonyl)-N-(2-fluorophenyl)benzenesulfonamide], which IC50 is on record?
**A.** 3.8 µM

**Q.** Which IC50 does the source give for `O=C(Nc1ccc(C(=O)N2CCN3CCC[C@@H]3C2)cc1Cl)C(c1ccccc1)c1ccccc1` [Example 75, N-{2-chloro-4-[(8aR)-hexahydropyrrolo[1,2-a]pyrazin-2(1H)-ylcarbonyl]phenyl}-2,2-diphenylacetamide] here?
**A.** 6.5 µM

**Q.** How did the IC50 turn out when `O=C(N[C@@H]1C[C@H]1c1ccccc1)c1cccc(S(=O)(=O)N2CCN3CCC[C@H]3C2)c1` [Example 60, 3-[(8aS)-hexahydropyrrolo[1,2-a]pyrazin-2(1H)-ylsulfonyl]-N-[(1R,2S)-2-phenylcyclopropyl]benzamide] was run?
**A.** 5 µM

**Q.** How did the IC50 turn out when `O=C(c1ccc(Cl)c(S(=O)(=O)Nc2ccc(C(F)(F)F)cc2)c1)N1CCN2CCC[C@@H]2C1` [Example 34, 2-chloro-5-[(8aR)-hexahydropyrrolo[1,2-a]pyrazin-2(1H)-ylcarbonyl]-N-[4-(trifluoromethyl)phenyl]benzenesulfonamide] was run?
**A.** 6.2 µM

**Q.** Which IC50 does the source give for `O=C(c1cccc(NC(c2ccccc2)c2ccccc2)c1)N1CCN2CCC[C@@H]2C1` [Example 80, N-benzhydryl-N-{3-[(8aR)-hexahydropyrrolo[1,2-a]pyrazin-2(1H)-ylcarbonyl]phenyl}amine] here?
**A.** 2 µM

**Q.** How did the IC50 turn out when `O=C(c1cccc(S(=O)(=O)NCC(c2ccccc2)c2ccccc2)c1)N1CCN2CCC[C@@H]2C1` [Example 26, N-(2,2-diphenylethyl)-3-[(8aR)-hexahydropyrrolo[1,2-a]pyrazin-2(1H)-ylcarbonyl]benzenesulfonamide] was run?
**A.** 1.5 µM

**Q.** `O=C(c1cccc(S(=O)(=O)Nc2ccccc2C(F)(F)F)c1)N1CCN2CCC[C@H]2C1` [Example 19, 3-[(8aS)-hexahydropyrrolo[1,2-a]pyrazin-2(1H)-ylcarbonyl]-N-[2-(trifluoromethyl)phenyl]benzenesulfonamide] was tested. Which IC50 did it give?
**A.** 2.4 µM

**Q.** For `CC(C)N(c1cccc(C(=O)N2CCN3CCC[C@@H]3C2)c1)S(=O)(=O)c1cccc(C(F)(F)F)c1` [Example 77, N-{3-[(8aR)-hexahydropyrrolo[1,2-a]pyrazin-2(1H)-ylcarbonyl]phenyl}-N-isopropyl-3-(trifluoromethyl)benzenesulfonamide], which IC50 is on record?
**A.** > 10 µM

**Q.** Which IC50 does the source give for `O=C(c1cccc(S(=O)(=O)Nc2cccc(Cl)c2)c1)N1CCN2CCC[C@@H]2C1` [Example 25, N-(3-chlorophenyl)-3-[(8aR)-hexahydropyrrolo[1,2-a]pyrazin-2(1H)-ylcarbonyl]benzenesulfonamide] here?
**A.** 8.9 µM

**Q.** How did the IC50 turn out when `CN(c1ccccc1F)S(=O)(=O)c1cc(C(=O)N2CCN3CCC[C@@H]3C2)c(Cl)cc1F` [Example 66, 4-chloro-2-fluoro-N-(2-fluorophenyl)-5-[(8aR)-hexahydropyrrolo[1,2-a]pyrazin-2(1H)-ylcarbonyl]-N-methylbenzenesulfonamide] was run?
**A.** 5.9 µM

**Q.** With `O=C(c1cccc(S(=O)(=O)Nc2cccc(F)c2F)c1)N1CCN2CCC[C@H]2C1` [Example 11, N-(2,3-difluorophenyl)-3-[(8aS)-hexahydropyrrolo[1,2-a]pyrazin-2(1H)-ylcarbonyl]benzenesulfonamide] as the molecule, how does the IC50 read?
**A.** 6.6 µM

**Q.** With `O=C(c1cccc(S(=O)(=O)Nc2cccc(C(F)(F)F)c2)c1)N1CCC(N2CCCC2)CC1` [Example 43, 3-[(4-pyrrolidin-1-ylpiperidin-1-yl)carbonyl]-N-[3-(trifluoromethyl)phenyl]benzenesulfonamide] as the molecule, how does the IC50 read?
**A.** 4.9 µM

**Q.** `O=C(Nc1cc(C(=O)N2CCN3CCC[C@@H]3C2)ccc1Cl)c1ccc(F)cc1` [Example 68, N-{2-chloro-5-[(8aR)-hexahydropyrrolo[1,2-a]pyrazin-2(1H)-ylcarbonyl]phenyl}-4-fluorobenzamide] was tested. Which IC50 did it give?
**A.** 10.9 µM

**Q.** For `O=C(NCCC(c1ccccc1)c1ccccc1)c1cccc(S(=O)(=O)N2CCN3CCC[C@H]3C2)c1` [Example 55, N-(3,3-diphenylpropyl)-3-[(8aS)-hexahydropyrrolo[1,2-a]pyrazin-2(1H)-ylsulfonyl]benzamide], which IC50 is on record?
**A.** 1.8 µM

**Q.** For `O=C(c1cccc(S(=O)(=O)NCCc2ccc(F)cc2)c1)N1CCN2CCC[C@H]2C1` [Example 33, N-[2-(4-fluorophenyl)ethyl]-3-[(8aS)-hexahydropyrrolo[1,2-a]pyrazin-2(1H)-ylcarbonyl]benzenesulfonamide], which IC50 is on record?
**A.** 5.7 µM

**Q.** Which IC50 does the source give for `O=C(c1cccc(S(=O)(=O)Nc2ccccc2F)c1)N1CCN2CCCCC2C1` (centres unmarked) [Example 39, N-(2-fluorophenyl)-3-(octahydro-2H-pyrido[1,2-a]pyrazin-2-ylcarbonyl)benzenesulfonamide] here?
**A.** 4.1 µM

**Q.** How did the IC50 turn out when `O=C(c1cccc(S(=O)(=O)Nc2cccc(F)c2)c1)N1CCC(N2CCCC2)CC1` [Example 44, N-(3-fluorophenyl)-3-[(4-pyrrolidin-1-ylpiperidin-1-yl)carbonyl]benzenesulfonamide] was run?
**A.** 4.9 µM

**Q.** For `O=C(c1cccc(S(=O)(=O)Nc2cccc(F)c2)c1)N1CCC(N2CCCCC2)CC1` [Example 48, 3-(1,4′-bipiperidin-1′-ylcarbonyl)-N-(3-fluorophenyl)benzenesulfonamide], which IC50 is on record?
**A.** > 10 µM

**Q.** `O=C(c1cccc(S(=O)(=O)Nc2ccc(F)cc2F)c1)N1CCN2CCC[C@@H]2C1` [Example 18, N-(2,4-difluorophenyl)-3-[(8aR)-hexahydropyrrolo[1,2-a]pyrazin-2(1H)-ylcarbonyl]benzenesulfonamide] was tested. Which IC50 did it give?
**A.** 9.3 µM
